Assay results published in publication PMC7486443, “Generation of Phenothiazine with Potent Anti-TLK1 Activity for Prostate Cancer Therapy” (iScience, 2020).

Tests used:
Assay in all cases: biochemical
Design in all cases: DiscoverX KINOMEscan scanMAX competition binding panel, single concentration, percent of control; remaining binding: dose or concentration left out as unconfirmed
Conditions in all cases: KINOMEscan binding, percent of control; read-out: Table S4_SCANMAX REPORT - related to Fig. 1 / Percent Control
IGF1R = IGF1R (Homo sapiens, UniProt P08069)
Excerpt: (§1) Certain PTH are potent inhibitors of TLK1 ([Ronald et al., 2013]), and by inference TLK2, as these proteins must homo- and hetero-dimerize for full activation ([Mortuza et al., 2018]), in addition to being highly similar in sequence and structure, and thus similarly targetable. […] Two noteworthy observations are that PTHs are structurally different from many known ATP competitive inhibitors, and that J54 was carefully designed based on considerations reported previously for the THD—the Kinomescan has confirmed that J54 is specific to TLKs. We should point out that although PTH were the first reported inhibitors of TLKs ([Ronald et al., 2013]), other inhibitors particularly of TLK2 have since been reported ([Kim et al., 2016]), some based on structure docking ([Mortuza et al., 2018]), although neither their potency and effects in vivo nor their potential off-target effects have not been reported as they were selected from libraries of kinase inhibitors. Supplementary file mmc2.xlsx: Table S4. SCANMAX Table, Related to Figure 1 Kinomescan of J54 inhibitory activity on human kinases.

[1] = biological target: T1, ABL1(T315I)-nonphosphorylated (Homo sapiens, UniProt P00519, T315I)
T1 construct: nonphosphorylated
Excerpt: as §1

[2] = biological target: T2, RSK4(Kin.Dom.2-C-terminal) (Homo sapiens, UniProt Q9UK32)
T2 construct: gene RPS6KA6; Kin.Dom.2-C-terminal
Excerpt: as §1

RET(V804M) = RET(V804M) (Homo sapiens, UniProt P07949, V804M)
Excerpt: as §1

ULK2 = ULK2 (Homo sapiens, UniProt Q8IYT8)
Excerpt: as §1

SNARK = biological target: T3, SNARK (Homo sapiens, UniProt Q9H093)
T3 construct: gene NUAK2
Excerpt: as §1

CDK2 = CDK2 (Homo sapiens, UniProt P24941)
Excerpt: as §1

[3] = biological target: T4, ABL1(H396P)-nonphosphorylated (Homo sapiens, UniProt P00519, H396P)
T4 construct: nonphosphorylated
Excerpt: as §1

EPHA1 = EPHA1 (Homo sapiens, UniProt P21709)
Excerpt: as §1

PKN1 = PKN1 (Homo sapiens, UniProt Q16512)
Excerpt: as §1

PLK1 = PLK1 (Homo sapiens, UniProt P53350)
Excerpt: as §1

CAMK2B = CAMK2B (Homo sapiens, UniProt Q13554)
Excerpt: as §1

ALK(L1196M) = ALK(L1196M) (Homo sapiens, UniProt Q9UM73, L1196M)
Excerpt: as §1

PDGFRB = PDGFRB (Homo sapiens, UniProt P09619)
Excerpt: as §1

PCTK1 = biological target: T5, PCTK1 (Homo sapiens, UniProt Q00536)
T5 construct: gene CDK16
Excerpt: as §1

RIOK1 = RIOK1 (Homo sapiens, UniProt Q9BRS2)
Excerpt: as §1

HIPK2 = HIPK2 (Homo sapiens, UniProt Q9H2X6)
Excerpt: as §1

NEK3 = NEK3 (Homo sapiens, UniProt P51956)
Excerpt: as §1

Sequence of EPHA1 (P21709 whole entry): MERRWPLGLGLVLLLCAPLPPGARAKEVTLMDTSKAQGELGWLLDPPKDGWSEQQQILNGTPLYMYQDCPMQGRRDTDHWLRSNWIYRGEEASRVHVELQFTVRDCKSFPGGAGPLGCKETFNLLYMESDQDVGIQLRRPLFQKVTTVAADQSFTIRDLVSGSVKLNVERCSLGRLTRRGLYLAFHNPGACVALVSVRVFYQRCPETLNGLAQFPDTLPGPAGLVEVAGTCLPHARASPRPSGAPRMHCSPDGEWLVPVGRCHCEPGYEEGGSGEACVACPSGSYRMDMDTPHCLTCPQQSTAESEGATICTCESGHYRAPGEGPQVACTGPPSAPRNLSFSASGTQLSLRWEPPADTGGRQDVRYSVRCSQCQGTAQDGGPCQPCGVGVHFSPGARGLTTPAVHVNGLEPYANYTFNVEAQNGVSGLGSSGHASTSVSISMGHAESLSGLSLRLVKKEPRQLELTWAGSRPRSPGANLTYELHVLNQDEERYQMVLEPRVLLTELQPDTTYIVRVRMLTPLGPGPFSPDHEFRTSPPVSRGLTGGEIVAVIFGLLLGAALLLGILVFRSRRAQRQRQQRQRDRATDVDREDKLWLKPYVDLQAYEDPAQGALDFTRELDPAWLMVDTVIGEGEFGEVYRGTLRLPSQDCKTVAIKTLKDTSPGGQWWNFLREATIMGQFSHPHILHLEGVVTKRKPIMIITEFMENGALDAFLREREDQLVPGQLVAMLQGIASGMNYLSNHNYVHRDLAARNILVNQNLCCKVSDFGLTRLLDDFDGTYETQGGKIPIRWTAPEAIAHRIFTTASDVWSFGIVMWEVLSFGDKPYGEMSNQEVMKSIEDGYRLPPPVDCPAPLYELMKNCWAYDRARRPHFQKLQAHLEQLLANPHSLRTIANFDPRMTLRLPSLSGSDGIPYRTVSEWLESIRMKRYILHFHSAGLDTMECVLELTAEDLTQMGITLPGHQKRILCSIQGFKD
Sequence of RIOK1 (Q9BRS2 whole entry): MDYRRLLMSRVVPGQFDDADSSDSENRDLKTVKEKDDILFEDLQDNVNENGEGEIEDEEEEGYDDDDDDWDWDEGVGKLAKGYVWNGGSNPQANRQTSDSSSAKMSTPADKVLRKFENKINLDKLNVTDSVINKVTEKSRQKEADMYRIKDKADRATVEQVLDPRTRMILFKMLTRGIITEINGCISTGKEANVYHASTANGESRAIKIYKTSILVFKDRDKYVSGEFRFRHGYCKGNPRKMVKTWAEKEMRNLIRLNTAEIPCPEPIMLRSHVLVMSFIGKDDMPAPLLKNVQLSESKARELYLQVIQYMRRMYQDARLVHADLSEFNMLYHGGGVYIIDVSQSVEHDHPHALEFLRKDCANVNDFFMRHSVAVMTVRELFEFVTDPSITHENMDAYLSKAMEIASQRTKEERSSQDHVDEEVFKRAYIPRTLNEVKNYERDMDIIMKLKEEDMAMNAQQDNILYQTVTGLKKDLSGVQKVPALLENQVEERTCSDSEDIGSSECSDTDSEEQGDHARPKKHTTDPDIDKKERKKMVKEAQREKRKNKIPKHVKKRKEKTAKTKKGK
T2 sequence (Q9UK32 whole entry): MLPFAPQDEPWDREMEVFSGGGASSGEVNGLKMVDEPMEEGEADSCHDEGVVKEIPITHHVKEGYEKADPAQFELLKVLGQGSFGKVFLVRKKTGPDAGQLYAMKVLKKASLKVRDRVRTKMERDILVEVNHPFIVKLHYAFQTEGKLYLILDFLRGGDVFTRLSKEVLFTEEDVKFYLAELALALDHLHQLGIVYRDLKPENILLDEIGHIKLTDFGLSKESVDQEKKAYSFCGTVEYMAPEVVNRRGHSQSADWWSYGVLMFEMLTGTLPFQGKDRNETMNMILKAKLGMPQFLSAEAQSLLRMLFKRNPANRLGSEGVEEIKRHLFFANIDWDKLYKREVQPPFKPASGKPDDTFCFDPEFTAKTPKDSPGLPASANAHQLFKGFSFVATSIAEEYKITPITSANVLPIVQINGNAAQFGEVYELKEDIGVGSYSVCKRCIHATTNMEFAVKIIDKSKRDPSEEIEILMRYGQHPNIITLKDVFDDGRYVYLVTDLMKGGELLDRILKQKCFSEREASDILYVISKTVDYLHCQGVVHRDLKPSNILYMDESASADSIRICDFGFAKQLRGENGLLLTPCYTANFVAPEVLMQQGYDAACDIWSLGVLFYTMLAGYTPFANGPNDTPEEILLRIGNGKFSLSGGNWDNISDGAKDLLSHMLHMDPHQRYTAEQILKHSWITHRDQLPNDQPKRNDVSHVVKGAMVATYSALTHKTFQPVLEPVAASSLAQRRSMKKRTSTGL
Sequence of PKN1 (Q16512 whole entry): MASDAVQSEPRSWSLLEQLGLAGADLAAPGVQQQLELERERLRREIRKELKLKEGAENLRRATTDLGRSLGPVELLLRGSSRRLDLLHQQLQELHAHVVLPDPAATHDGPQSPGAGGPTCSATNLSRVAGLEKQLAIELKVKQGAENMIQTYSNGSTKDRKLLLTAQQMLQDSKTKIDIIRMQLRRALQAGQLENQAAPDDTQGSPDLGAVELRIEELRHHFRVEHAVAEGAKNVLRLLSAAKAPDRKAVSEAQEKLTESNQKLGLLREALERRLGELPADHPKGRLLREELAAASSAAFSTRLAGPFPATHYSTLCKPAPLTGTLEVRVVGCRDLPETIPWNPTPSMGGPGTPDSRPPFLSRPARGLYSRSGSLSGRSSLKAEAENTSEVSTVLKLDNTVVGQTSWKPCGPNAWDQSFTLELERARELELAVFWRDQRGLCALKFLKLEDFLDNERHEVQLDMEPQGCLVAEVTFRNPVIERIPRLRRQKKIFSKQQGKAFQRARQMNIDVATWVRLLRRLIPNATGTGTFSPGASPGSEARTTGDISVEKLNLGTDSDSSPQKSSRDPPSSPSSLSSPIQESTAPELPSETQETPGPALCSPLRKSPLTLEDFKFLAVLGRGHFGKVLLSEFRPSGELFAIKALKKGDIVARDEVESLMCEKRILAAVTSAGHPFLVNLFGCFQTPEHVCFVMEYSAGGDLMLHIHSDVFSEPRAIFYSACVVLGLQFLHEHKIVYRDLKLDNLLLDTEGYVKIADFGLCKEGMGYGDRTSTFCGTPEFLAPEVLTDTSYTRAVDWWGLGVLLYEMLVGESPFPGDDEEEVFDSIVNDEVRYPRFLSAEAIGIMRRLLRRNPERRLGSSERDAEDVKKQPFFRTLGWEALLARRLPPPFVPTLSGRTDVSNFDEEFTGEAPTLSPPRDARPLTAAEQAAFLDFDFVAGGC
Sequence of CAMK2B (Q13554 whole entry): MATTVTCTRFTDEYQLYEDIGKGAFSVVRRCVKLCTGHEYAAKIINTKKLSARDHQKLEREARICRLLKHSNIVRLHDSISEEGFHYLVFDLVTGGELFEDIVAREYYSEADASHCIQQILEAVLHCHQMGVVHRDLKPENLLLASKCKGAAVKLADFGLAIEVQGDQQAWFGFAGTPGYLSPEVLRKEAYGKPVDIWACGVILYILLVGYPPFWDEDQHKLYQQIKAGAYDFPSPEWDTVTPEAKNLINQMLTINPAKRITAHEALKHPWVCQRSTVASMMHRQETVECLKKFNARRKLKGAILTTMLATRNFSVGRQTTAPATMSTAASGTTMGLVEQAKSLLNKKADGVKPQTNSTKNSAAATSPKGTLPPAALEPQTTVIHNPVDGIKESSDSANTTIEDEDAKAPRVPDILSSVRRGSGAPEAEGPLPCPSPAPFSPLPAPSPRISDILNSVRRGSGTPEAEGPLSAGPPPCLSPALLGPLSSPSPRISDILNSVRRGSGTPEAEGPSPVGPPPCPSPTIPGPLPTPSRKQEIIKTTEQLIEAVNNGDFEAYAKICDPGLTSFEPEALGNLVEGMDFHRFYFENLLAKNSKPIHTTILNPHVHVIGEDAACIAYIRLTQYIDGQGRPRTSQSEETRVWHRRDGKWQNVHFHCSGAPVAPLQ
Sequence of PLK1 (P53350 whole entry): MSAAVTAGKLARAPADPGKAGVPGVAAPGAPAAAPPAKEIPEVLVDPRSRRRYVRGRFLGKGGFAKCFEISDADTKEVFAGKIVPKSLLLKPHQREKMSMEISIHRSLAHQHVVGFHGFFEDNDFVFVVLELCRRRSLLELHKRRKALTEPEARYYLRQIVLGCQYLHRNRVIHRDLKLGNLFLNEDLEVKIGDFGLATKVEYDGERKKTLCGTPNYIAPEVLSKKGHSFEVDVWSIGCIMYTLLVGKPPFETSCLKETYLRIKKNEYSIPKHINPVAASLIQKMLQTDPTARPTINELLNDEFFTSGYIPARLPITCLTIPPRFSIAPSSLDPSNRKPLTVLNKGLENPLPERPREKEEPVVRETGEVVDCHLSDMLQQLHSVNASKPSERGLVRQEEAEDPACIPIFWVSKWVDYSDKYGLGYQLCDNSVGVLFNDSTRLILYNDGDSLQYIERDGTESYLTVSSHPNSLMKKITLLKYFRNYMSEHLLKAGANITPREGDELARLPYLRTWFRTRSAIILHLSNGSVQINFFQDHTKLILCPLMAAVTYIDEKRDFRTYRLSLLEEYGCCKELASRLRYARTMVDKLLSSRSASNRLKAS
Sequence of NEK3 (P51956 whole entry): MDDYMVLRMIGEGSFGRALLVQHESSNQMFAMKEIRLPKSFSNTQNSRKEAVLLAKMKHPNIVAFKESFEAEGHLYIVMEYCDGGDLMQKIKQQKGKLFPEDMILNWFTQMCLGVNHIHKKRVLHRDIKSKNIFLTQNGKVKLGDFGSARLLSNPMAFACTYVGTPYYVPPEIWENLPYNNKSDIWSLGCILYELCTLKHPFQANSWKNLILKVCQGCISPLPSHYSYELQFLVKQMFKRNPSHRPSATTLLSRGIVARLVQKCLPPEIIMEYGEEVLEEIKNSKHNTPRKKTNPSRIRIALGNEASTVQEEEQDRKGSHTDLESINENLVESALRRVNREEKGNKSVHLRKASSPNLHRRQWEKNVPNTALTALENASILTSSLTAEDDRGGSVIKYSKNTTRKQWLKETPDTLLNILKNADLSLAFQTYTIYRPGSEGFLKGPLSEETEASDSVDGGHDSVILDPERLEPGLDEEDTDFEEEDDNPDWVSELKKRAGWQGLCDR

Question: `c1ccc2c(c1)Sc1ccccc1N2CCN1CCOCC1` [J54] was tested. Which remaining binding (IGF1R) did it give?
Answer: 56%

Question: What about the remaining binding [1] of the same compound?
Answer: 94%

Question: What about the remaining binding [2] of the same compound?
Answer: 99%

Question: And the remaining binding (RET(V804M))?
Answer: 100%

Question: And the remaining binding (ULK2)?
Answer: 100%

Question: What about the remaining binding (SNARK) of the same compound?
Answer: 99%

Question: And the remaining binding (CDK2)?
Answer: 92%

Question: And the remaining binding [3]?
Answer: 86%

Question: And the remaining binding (EPHA1)?
Answer: 100%

Question: And the remaining binding (PKN1)?
Answer: 100%

Question: And the remaining binding (PLK1)?
Answer: 100%

Question: What about the remaining binding (CAMK2B) of the same compound?
Answer: 93%

Question: What about the remaining binding (ALK(L1196M)) of the same compound?
Answer: 100%

Question: What about the remaining binding (PDGFRB) of the same compound?
Answer: 100%

Question: And the remaining binding (PCTK1)?
Answer: 99%

Question: And the remaining binding (RIOK1)?
Answer: 59%

Question: And the remaining binding (HIPK2)?
Answer: 100%

Question: And the remaining binding (NEK3)?
Answer: 75%
